The values below come from patent US20080020977A1, “Use of Fullerenes to Oxidize Reduced Redox Proteins” (priority 2005, published 2008).

The test system of test [1] is mice. Particulars: oral, about 0.5 mg/kg/day, cited from earlier work.
The test system of test [2] is cytochrome c. The test is described as follows: Oxidation state of cytochrome c in the xanthine/xanthine oxidase system (absorbance at 550 nm). Type of test: biochemical. As to conditions: substituted fullerene added at time zero; versus blank without fullerene; data not shown. The procedure: The reduction of cytochrome c was performed by employing the xanthine/xanthine oxidase system. The reaction was initiated by the addition of xanthine oxidase (7.5×10^−3 units) to an incubation mixture containing 50 mM potassium phosphate, 0.1 mM EDTA, 0.01 mM cytochrome c, and 0.05 mM xanthine. Xanthine oxidase catalyzed the formation of superoxide radicals, which then reduced cytochrome c to the ferrous form. Reduction of cytochrome c was followed by recording the corresponding increase in the absorbance at 550 nm, using the molar absorption coefficients of 9 mmol^−1cm^−1 and 27.7 mmol^−1cm^−1 for the oxidized (ferric) and reduced (ferrous) forms, respectively. All assays were performed at room temperature. A volume of 3 mL was used in each experiment.
The effect of fullerenes on the oxidation state of cytochrome c was studied using substituted fullerenes C3 and DF-1, described above, wherein the substituted fullerene was added to the reaction mixture at 5, 10, or 15 minutes after addition of xanthine oxidase. Results are shown in FIG. 11, with time=0 for each run being the moment when the substituted fullerene was added. In the negative control, without fullerene (blank), reduction of cytochrome c (increase of absorbance at 550 nm) can be seen over 600 sec. […]

(C60(>C(COOH)2)3) [C3]: the mean survival in test [1] (controls 23.5+/−5.5 months) is listed as 28.7+/−3.3 months. Also, the “increase in mean survival relative to controls” value in test [1] (p=0.033) is recorded as roughly 20%. Besides, the “extent and rate of reduction of cytochrome c (increase of absorbance at 550 nm)” value in test [2] was “reduced”.
